The values below are quoted from earlier work in patent US6555530B1, “Use of estrogens and delta-gonadien-21-Ol-3,20-diones for treating insulin dependent and non-insulin dependent diabetes” (Novo Nordisk A/S, priority 1999, dated 2003).

Data set [1] deals with intact or ovarectomized female rats. Particulars: correlated to morphological changes in muscle.
The test system of data set [2] is streptozotocin diabetic rats. Particulars: implanted testosterone.

For `C[C@]12CC[C@H]3[C@@H](CCC4=CC(=O)CC[C@@]43C)[C@@H]1CC[C@@H]2O` [Testosterone], in data set [1], the insulin resistance result is “marked insulin resistance”. The “glycemic control by residual insulin” value in data set [2] is “antagonized the ability of residual insulin to maintain glycemic control”.
